The subject of data set [1] is IL-1β. Kind of data set: Bovine whole blood assay, IL-1β. It counts as cell-based. The conditions noted are these: drug concentration giving overstimulation of IL-1β over LPS (cellular toxicity signal). Here is the method: (protected from light) for 30 minutes.
Data set [2] has as its system P. multocida 46572. Description: In vivo mouse lung infection challenge model (murine efficacy model). The settings on record: P. multocida infection in mice.
Data set [3] deals with P. multocida. Description: Murine P. multocida intranasal challenge study with lung tissue RNA sequence analysis. It is filed as in vivo, mouse. The settings on record: 32 mg/kg subcutaneous 18 hours after challenge (T03); placebo 0%. Here is the method: In one murine P. multocida intranasal challenge study, mice were administered tulathromycin (16 mg/kg; T02), M9 (32 mg/kg; T03), or ceftiofur (9 mg/kg; T04) by subcutaneous injection 18 hours after bacterial challenge (5×10^3 CFU/mouse) for lung tissue RNA sequence analysis. Survival at Day 7 was about 80%, 50%, and 90% for T02, T03, and T04, respectively, compared to placebo at 0%. Differential gene expression from total lung tissue RNA sequence analysis indicated at least 226 unique genes were up or down regulated (with significance) for T03. Output from ingenuity pathway analysis of these unique genes predicted major upstream regulators of the involved pathways. Data was analyzed based on the number of genes being modulated in the same direction that were associated with a given upstream regulator. An activation z-score of 2 or greater is considered significant and the direction change is indicated by + (activated) or − (inhibited). The top 5 pathways included: IL-9 signaling, glucocorticoid receptor signaling, prolactin signaling, JAK STAT signaling, and IL-17 signaling. The top 6 upstream regulators (activation z-score) included: lipopolysaccharide (−6.725), TNF (−4.669), IFNγ (−5.759), IL-1β (−5.947), STAT1 (−2.787), and poly rI:rC-RNA (−5.289). Even though this study was run in the murine model, the top upstream regulators identified as being modulated by M9 include an almost ubiquitous overlap with the pathways identified in the natural disease study as being key mediators in BRD, and therefore is modulating highly relevant pathways in BRD pathobiology.

In data set [4] the test system is bovine respiratory disease (BRD). Kind of data set: Natural bovine respiratory disease study. It counts as in vivo, beef calves.
Description: The primary clinical endpoint for efficacy was treatment failure/success over a 14-day observation period. Clinically normal beef calves (150-200 kg) at moderate risk for BRD were dosed on arrival to the feedlot. Animals (N=114/group) received saline (T01), 5 mg/kg M9 (T02) or 10 mg/kg M9 (T03); or Zactran (T04). […] Bacterial isolates were collected at necropsy and MICs were evaluated (Table 4).
In data set [5] the test system is M. haemolytica (strain: OSU-012103-BHI). Description: Bovine M. haemolytica intratracheal lung challenge model. It counts as in vivo.
The nature of data set [6]: Separate study of M9 versus saline control (lung lesions, mortality). It is filed as in vivo. The conditions noted are these: 10 mg/kg.
The target of data set [7] is T1, LCN2 (Bos taurus, UniProt A0AAA9TIZ6).
T1 sequence (A0AAA9TIZ6 24-200): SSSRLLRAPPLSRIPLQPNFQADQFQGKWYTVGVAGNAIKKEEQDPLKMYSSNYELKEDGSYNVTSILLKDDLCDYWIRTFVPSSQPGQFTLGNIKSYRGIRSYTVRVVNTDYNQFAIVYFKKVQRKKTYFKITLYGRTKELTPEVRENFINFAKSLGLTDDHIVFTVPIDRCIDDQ
Description: Surface plasmon resonance (SPR) drug/target binding, LCN2. More on the design: species or system bovine. The settings on record: read-out: Interaction KD. Here is the method:
(§1) To further characterize the direct activity of the compounds of the invention, experiments to identify the drug's direct binding host partners(s) were performed with the aim of identifying the potential biological targets. Bovine primary cells (peripheral blood mononuclear cells [PBMCs] and polymorphonuclear cells [PMN/neutrophils]) and tissue (trachea, lung) protein homogenates were mixed with M9 and the macrolide, gamithromicin as a comparator. Tissue interactions were allowed to form using a heterogeneous assembly method (nematic protein organization technique, NPOT; Inoviem Scientific); and traditional western blots to identify native-structure proteins bound to the compound. Mass spectrometry analysis identified eight proteins involved in the interaction with M9 as compared to gamithromycin. The antibacterial macrolide gamithromycin was used as a comparator to differentiate specific binding to M9. These proteins were considered to be either direct binding partners of the drug or closely involved in the drug:target interaction (Table 6).
(§2) In order to add further clarity to binding partner identification, surface plasma resonance (SPR) technology was used. […]
(§3) KD is the equilibrium dissociation constant that was used to present the drug/target affinity. The identified targets associated with drug were measured by surface plasmon resonance (SPR) to define the KD.

Data set [8] addresses SLAMF9 (Bos taurus, UniProt E1BNF9). Kind of data set: Surface plasmon resonance (SPR) drug/target binding, SLAMF9. Also noted: species or system bovine. The settings on record: read-out: Interaction KD. The protocol:
as §1, §2, §3
On the technique in general: SPR reads the build-up and loss of mass on a sensor chip optically.

Data set [9] has as its target NLRX1 (Bos taurus, UniProt A7MB19). Kind of data set: Drug binding partner identification (NPOT/SPR), NLRX1. Also noted: species or system bovine. The conditions noted are these: tissue PBMCs. The protocol:
as §1, §2, §3

In data set [10] the target is LPO (Bos taurus, UniProt P80025). Kind of data set: Drug binding partner identification (NPOT/SPR), LPO. The conditions noted are these: tissue Trachea, PBMCs, PMNs. Also noted: species or system bovine. The protocol:
as §1, §2, §3

Data set [11] has as its target T2, TLR4 (Bos taurus, UniProt Q9GL65).
T2 sequence (Q9GL65 24-841): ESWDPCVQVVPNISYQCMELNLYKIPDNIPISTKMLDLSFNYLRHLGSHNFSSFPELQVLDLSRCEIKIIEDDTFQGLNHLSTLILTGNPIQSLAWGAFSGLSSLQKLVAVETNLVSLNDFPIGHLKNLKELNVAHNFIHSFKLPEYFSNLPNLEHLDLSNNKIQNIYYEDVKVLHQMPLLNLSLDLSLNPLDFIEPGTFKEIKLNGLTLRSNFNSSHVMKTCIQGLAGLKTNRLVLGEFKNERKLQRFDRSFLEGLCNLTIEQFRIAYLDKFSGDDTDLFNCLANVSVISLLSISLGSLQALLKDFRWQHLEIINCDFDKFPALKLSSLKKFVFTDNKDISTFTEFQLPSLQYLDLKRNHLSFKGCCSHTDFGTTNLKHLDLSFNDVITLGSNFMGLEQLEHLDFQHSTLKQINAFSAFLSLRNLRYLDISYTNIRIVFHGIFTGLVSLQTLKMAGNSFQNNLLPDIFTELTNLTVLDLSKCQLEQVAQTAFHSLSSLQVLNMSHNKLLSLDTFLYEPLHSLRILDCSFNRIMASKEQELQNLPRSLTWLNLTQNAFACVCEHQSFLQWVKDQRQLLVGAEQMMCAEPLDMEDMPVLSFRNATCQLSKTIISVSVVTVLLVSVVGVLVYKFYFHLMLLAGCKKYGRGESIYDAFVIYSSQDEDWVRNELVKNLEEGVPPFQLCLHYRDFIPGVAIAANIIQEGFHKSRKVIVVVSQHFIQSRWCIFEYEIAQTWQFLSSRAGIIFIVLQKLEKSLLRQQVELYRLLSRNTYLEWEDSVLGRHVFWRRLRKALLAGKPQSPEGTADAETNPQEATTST
Description: Drug binding partner identification (NPOT/SPR), TLR4. Also noted: species or system bovine. The conditions noted are these: tissue PBMCs, Trachea. The protocol:
as §1, §2, §3

Data set [12] can be described thus: Separate PK study, plasma concentration. The conditions noted are these: following a 10 mg/kg dose.

Entries after “also recorded” stand apart in the source; their conditions may differ. Like-named read-outs stand apart in the source and are kept apart here.

SLAMF9, sequence (E1BNF9 1-289): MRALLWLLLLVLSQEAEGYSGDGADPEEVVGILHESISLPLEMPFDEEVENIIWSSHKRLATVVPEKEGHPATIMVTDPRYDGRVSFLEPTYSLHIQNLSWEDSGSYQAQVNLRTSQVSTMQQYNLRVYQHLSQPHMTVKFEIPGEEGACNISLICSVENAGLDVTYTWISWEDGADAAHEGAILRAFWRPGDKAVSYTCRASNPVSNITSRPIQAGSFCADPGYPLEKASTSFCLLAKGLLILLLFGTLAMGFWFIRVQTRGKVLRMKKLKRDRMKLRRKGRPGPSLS
NLRX1, sequence (A7MB19 1-973): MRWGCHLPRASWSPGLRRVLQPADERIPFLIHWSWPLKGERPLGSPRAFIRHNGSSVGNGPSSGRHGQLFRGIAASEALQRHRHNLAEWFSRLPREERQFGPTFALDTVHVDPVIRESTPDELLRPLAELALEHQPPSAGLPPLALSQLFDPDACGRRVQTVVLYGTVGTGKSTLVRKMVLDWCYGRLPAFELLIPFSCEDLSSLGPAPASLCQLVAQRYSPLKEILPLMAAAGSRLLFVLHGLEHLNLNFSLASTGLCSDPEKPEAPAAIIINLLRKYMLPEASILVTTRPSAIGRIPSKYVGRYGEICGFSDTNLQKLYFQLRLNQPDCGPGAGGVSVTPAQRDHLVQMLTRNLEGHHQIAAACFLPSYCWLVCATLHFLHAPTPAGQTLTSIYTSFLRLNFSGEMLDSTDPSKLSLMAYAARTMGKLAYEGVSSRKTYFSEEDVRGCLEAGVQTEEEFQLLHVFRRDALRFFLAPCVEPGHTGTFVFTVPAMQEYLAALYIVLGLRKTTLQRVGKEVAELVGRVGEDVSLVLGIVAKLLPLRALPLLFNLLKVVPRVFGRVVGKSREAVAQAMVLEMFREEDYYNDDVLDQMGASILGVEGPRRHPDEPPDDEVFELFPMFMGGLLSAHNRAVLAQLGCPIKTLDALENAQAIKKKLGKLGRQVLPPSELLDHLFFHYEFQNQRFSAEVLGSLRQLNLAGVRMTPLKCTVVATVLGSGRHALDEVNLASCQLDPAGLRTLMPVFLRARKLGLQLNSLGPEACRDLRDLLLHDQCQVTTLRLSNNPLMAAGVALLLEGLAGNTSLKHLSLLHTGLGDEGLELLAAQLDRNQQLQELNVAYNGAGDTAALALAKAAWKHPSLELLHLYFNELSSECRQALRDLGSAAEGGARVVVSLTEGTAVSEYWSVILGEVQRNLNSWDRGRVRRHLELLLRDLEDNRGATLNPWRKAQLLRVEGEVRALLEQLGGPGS

One may read the Kd as the equilibrium constant for the complex coming apart. Take `CCCNC[C@]1(O)[C@H](C)O[C@@H](O[C@H]2[C@H](C)[C@@H](O[C@@H]3O[C@H](C)C[C@H](NC)[C@H]3O)[C@](C)(O)C[C@@H](C)CN[C@H](C)[C@@H](O)[C@](C)(O)[C@@H](CC)OC(=O)[C@@H]2C)C[C@@]1(C)OC` [Example M9, (2R,3S,4R,5R,8R,10R,11R,12S,13S,14R)-2-ethyl-3,4,10-trihydroxy-13-(((2R,4R,5S,6S)-5-hydroxy-4-methoxy-4,6-dimethyl-5-((propylamino)methyl)-tetrahydro-2H-pyran-2-yl)oxy)-11-(((2S,3R,4S,6R)-3-hydroxy-6-methyl-4-(methylamino)tetrahydro-2H-pyran-2-yl)oxy)-3,5,8,10,12,14-hexamethyl-1-oxa-6-azacyclopentadecan-15-one]: the “IL-Iβ OS of LPS” value in data set [1] was > 500 µM. In data set [2], the “clinical efficacy, in words” value is “clinically efficacious”. Further, the “Survival at Day 7” value in data set [3] is ~50%. Besides, the “Percent failure (treatment failure)” value in data set [4] (10 mg/kg (T03), dosed on arrival, 14-day observation, saline 43%) came out at 8.8%. In addition, in data set [4] (reduction of lung lesions and treatment failure), the “efficacy versus untreated control groups, in words” value is “statistical superiority”. Further, the Mortality is 1/6 in data set [5] (T02: 10 mg/kg subcutaneous Day −1, M. haemolytica challenge Day 0, saline 4/6) and 13% in data set [6] (saline control 38.9%, p=0.025). In addition, in [5] (bovine M. haemolytica challenge, blood biomarker), the “IL-6 levels, in words” value is recorded as “significantly reduced”. Also, the “CD163 expression, in words” value in data set [5] (cattle, monocytes/macrophages in whole blood, flow cytometry) is given as “suppressed; also recorded: mitigates the pathologic increase”. Further, the lung lesions in [6] (saline control 31%, p=0.023) is listed as 20%. Besides, the Kd is 0.435 mM in [7] (pH 5.5, SPR); 4.21 mM in data set [7] (pH 6.5, SPR); 6.33 mM in data set [8] (pH 5.5, SPR); 2.15 mM in data set [8] (pH 6.5, SPR). The Interaction entry in data set [9], in [10] and in [11] was “Indirect” in each case. Also, the maximum plasma concentration in data set [12] is 5 µg/mL.
